One assay has as its target PLK4 (h) (Homo sapiens, UniProt O00444). Briefly: PLK-4 human kinase inhibition, scintillation proximity assay (SPA). The class given is biochemical. As to conditions: read-out: PLK4 pIC50 (converted).
The subject of a further assay is H1299. Briefly: Cellular proliferation assay (Alamar blue), H1299. Format: cell-based. Conditions: Homo sapiens, NCI-H1299; 10% FCS; 72 hours with compound; Alamar blue 4 h. The method in brief: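 This proliferation assay on NCI-H1299 cells used an initial 24-hour compound-free incubation after seeding, followed by 72 hours of compound treatment with 10% FCS serum at 37° C. and 5% (v/v) CO2. Viable cells were quantified by a 4 h Alamar blue incubation and fluorescent plate reading at 544 nm/590 nm, and effects were expressed relative to control cells.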
(In general: The colour change of resazurin is a common sign of viable cells or microbes.)

Another assay addresses AuroraB (h) (Homo sapiens, UniProt Q96GD4). Briefly: Aurora-B human kinase inhibition, SPA. Conditions: read-out: AuroraB pIC50 (converted). Format: biochemical. The essentials:
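AuroraB (0.5 μg/ml) phosphorylates 3 μM biotin-peptide using 0.5 μM ATP spiked with 33P-ATP in Hepes pH 7.5 with 3 mM MgCl2 and MnCl2, for 60 min at room temperature. EDTA stop solution carries streptavidin scintillant beads, and the captured radiolabel is imaged.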

The test system of a further assay is A2780. As to the kind of experiment: Cellular proliferation assay (Alamar blue), A2780. Format: cell-based. As to conditions: Homo sapiens, 10% FCS, 72 hours with compound, Alamar blue 24 h, read-out: A2780 (cellular proliferation assay, Table 4) (converted). The essentials: (§1)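 Alamar blue conversion, quantified fluorimetrically (544 nm/590 nm), gave viable cell number relative to untreated controls; dye time 4 h for HCT-116, 6 h for U87-MG, 24 h for A2780 and MDA-MB-231. Compound exposure lasted 72 h, after 24 h pre-seeding, with 10% FCS, 37 °C, 5% CO2.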

A further assay concerns the target PLK3 (h) (Homo sapiens, UniProt Q9H4B4). Briefly: PLK3 human kinase inhibition, SPA. The class given is biochemical. Conditions: read-out: PLK3 pIC50 (converted). The method in brief: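 Radiometric scintillation proximity format at pH 8.0 (Hepes, MnCl2, DTT). The 2 μM biotin-peptide substrate is phosphorylated by PLK3 (h) (30 μg/ml) using 0.1 μM ATP traced with 33P, for 20 min at room temperature. EDTA stop; phosphopeptide captured on streptavidin beads and imaged.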

In another assay the target is GSK3β (h) (Homo sapiens, UniProt P49841). As to the kind of experiment: GSK-3β human kinase inhibition, SPA. The class given is biochemical. As to conditions: read-out: GSK3b pIC50 (converted). The method in brief: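 Radiometric: 33P-labelled peptide captured on streptavidin SPA beads after EDTA stop and imaged on Leadseeker. Reaction ran 1 h at RT, 1 μM cold ATP with 2 nM [γ-33P]ATP, 1 μM biotin-peptide substrate, human GSK3β 1 μg/ml, pH 7.4 Tris buffer.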

The target of the next assay is CDK1/CyclinB (h) (Homo sapiens, UniProt P06493). Briefly: CDK1/CyclinB human kinase inhibition, Invitrogen's FRET assay (Z'lyte). Format: biochemical. As to conditions: read-out: CDK1 pIC50 (converted). The method in brief:
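Read-out is the 460 nm/538 nm emission ratio (390 nm excitation) after a 60 min protease development step. Before that, 10 μM ATP and 2 μM Z'lyte Ser/Thr peptide 12 react 60 min at room temperature with 0.2 μg/ml human CDK1/CyclinB in Hepes pH 7.5 containing MgCl2, EGTA and Brij-35.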

For the next assay, the system named is U87-MG. As to the kind of experiment: Cellular proliferation assay (Alamar blue), U87-MG. Format: cell-based. Conditions: Homo sapiens, U-87 MG; 10% FCS; 72 hours with compound; Alamar blue 6 h; read-out: U87-MG (cellular proliferation assay, Table 4) (converted). The essentials:
as §1

Another assay relates to HCT-116. Briefly: Cellular proliferation assay (Alamar blue), HCT-116. Format: cell-based. Conditions: Homo sapiens, 10% FCS, 72 hours with compound, Alamar blue 4 h. The essentials:
as §1

AuroraB (h), sequence (Q96GD4 whole entry): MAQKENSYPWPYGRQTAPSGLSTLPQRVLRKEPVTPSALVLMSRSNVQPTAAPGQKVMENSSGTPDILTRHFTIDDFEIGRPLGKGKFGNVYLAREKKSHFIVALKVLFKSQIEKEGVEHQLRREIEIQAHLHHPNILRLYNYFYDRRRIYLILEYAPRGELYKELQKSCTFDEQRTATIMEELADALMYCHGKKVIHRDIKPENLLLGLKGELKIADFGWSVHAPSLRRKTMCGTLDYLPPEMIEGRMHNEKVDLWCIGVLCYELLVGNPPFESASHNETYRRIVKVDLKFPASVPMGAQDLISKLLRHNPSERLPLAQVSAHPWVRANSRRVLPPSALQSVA
CDK1/CyclinB (h), sequence (P06493 whole entry): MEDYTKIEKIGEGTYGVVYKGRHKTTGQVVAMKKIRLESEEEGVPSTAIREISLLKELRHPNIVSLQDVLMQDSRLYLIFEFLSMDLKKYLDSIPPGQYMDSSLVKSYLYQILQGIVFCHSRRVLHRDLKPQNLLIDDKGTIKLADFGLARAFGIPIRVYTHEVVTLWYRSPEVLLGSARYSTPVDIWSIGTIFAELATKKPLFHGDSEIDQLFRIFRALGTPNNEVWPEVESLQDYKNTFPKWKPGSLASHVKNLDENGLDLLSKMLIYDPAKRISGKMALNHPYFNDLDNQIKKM
CDK1/CyclinB (h), sequence (P14635 whole entry partner): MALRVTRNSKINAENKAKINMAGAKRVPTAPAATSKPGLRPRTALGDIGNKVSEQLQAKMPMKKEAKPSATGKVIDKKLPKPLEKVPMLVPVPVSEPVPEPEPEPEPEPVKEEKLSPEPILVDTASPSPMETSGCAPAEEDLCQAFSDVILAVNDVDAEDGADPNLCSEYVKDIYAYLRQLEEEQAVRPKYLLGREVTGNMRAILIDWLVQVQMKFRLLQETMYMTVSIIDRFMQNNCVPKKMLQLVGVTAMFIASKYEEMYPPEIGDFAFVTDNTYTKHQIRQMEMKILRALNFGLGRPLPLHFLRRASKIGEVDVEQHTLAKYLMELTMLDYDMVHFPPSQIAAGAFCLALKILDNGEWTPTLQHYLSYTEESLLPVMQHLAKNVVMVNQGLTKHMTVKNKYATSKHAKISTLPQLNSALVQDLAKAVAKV
PLK4 (h), sequence (O00444 whole entry): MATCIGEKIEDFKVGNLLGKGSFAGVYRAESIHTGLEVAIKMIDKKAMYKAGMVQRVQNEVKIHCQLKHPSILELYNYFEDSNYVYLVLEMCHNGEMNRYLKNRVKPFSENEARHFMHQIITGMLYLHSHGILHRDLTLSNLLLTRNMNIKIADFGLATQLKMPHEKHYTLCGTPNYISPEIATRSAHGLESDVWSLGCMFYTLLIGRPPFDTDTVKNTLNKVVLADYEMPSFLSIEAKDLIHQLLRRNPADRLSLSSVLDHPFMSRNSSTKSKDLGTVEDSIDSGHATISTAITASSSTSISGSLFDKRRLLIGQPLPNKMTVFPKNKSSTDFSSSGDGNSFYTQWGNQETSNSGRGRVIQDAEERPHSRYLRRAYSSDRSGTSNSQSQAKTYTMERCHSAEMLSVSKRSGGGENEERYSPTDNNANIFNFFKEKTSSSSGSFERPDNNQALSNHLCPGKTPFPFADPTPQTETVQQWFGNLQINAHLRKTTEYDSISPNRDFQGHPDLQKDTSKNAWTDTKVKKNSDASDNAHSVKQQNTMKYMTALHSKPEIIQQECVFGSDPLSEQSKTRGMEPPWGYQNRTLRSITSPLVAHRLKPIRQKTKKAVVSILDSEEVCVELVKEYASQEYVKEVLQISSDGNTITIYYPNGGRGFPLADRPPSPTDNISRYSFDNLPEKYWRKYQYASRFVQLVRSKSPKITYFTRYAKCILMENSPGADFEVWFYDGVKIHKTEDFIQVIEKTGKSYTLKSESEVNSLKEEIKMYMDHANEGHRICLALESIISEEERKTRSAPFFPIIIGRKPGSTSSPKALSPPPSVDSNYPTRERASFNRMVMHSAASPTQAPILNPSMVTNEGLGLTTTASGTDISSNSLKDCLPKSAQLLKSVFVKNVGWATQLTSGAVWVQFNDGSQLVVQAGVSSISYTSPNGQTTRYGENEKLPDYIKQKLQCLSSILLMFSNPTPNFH
PLK3 (h), sequence (Q9H4B4 whole entry): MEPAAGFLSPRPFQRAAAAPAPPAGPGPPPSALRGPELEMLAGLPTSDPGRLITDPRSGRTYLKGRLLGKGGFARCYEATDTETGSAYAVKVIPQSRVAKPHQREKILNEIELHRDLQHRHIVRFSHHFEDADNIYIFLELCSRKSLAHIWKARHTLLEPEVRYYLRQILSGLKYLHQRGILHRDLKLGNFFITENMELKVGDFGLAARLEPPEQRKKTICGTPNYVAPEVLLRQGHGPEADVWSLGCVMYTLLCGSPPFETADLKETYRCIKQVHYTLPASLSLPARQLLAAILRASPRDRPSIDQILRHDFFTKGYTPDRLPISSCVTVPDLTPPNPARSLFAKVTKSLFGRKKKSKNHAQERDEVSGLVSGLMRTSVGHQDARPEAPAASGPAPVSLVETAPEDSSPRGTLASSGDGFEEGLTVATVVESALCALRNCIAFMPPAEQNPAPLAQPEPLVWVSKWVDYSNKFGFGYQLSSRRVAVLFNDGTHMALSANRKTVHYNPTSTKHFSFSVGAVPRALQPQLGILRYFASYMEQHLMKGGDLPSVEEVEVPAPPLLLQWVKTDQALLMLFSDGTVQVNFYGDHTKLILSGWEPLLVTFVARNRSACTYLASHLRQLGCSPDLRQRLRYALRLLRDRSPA
GSK3β (h), sequence (P49841 whole entry): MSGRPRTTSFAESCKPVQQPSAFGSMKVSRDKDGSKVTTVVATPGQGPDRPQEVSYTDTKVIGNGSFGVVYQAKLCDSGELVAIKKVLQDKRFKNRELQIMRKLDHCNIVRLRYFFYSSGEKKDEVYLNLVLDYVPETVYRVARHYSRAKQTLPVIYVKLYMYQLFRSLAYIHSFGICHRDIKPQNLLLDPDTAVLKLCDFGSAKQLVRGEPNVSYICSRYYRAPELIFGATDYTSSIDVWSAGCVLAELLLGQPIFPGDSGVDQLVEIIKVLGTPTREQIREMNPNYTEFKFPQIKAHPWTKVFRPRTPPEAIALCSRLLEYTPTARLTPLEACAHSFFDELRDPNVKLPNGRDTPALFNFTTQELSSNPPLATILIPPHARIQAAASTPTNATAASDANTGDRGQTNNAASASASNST

Consider `COc1ccc2cc1CN1CCC(CC1)C(=O)N(C)CCN(C)c1ccc(cn1)-c1ccnc(n1)N2` [Compound 4], for which the IC50 on PLK4 (h) is 2.4 µM; in the assay on H1299, more than 10 µM; on AuroraB (h), more than 10 µM; with A2780, more than 10 µM; at PLK3 (h), more than 10 µM; at GSK3β (h) it was 3.63 µM. Also, the IC50 at CDK1/CyclinB (h) was more than 10 µM; in the assay on U87-MG, more than 10 µM; in the assay with HCT-116 it was 5.25 µM.

With `CN1CCNC(=O)CN2CCN(CC2)Cc2cc(cc(N3CCOCC3)c2)Nc2nccc(n2)-c2ccc(cc2)C1` [Compound 135], the IC50 is 1.74 µM on PLK4 (h); more than 10 µM with H1299; more than 10 µM on AuroraB (h); more than 10 µM in the assay on A2780; more than 10 µM at PLK3 (h); 4.37 µM on GSK3β (h). Besides, the IC50 at CDK1/CyclinB (h) was more than 10 µM; with U87-MG, 9.77 µM; in the assay with HCT-116, more than 10 µM.

Turning to `O=C(NC1CCOCC1)c1ccc2cc1CN1CCC[C@H]1C(=O)NCc1cccc(c1)-c1ccnc(n1)N2` [Compound 46], the IC50 on PLK4 (h) was 0.427 µM; with H1299 it was more than 10 µM; at AuroraB (h), more than 10 µM; in the assay on A2780, 5.5 µM; on PLK3 (h), more than 10 µM; at GSK3β (h), 0.204 µM. For the same compound, the IC50 is more than 10 µM on CDK1/CyclinB (h), more than 10 µM in the assay with U87-MG and 2.24 µM in the assay on HCT-116.

As to `CN(C)CCNC(=O)c1ccc2cc1CN1CCC[C@H]1C(=O)NCc1cccc(c1)-c1ccnc(n1)N2` [Compound 42], the IC50 at PLK4 (h) was 0.355 µM; with H1299 it was 3.39 µM; on AuroraB (h), more than 10 µM; with A2780 it was 1.45 µM; at PLK3 (h), more than 3.02 µM; on GSK3β (h) it was 0.331 µM. For the same compound, the IC50 was approximately 1.35 µM on CDK1/CyclinB (h), 1.82 µM in the assay on U87-MG and 0.955 µM in the assay on HCT-116.

Regarding `O=C1NCc2cccc(c2)-c2ccnc(n2)Nc2cc(CNC3CCCCC3)cc(c2)CN2CCC[C@@H]12` [Compound 36], the IC50 is 0.219 µM on PLK4 (h); 3.39 µM in the assay on H1299; 8.13 µM at AuroraB (h); 0.55 µM in the assay with A2780; more than 10 µM at PLK3 (h); 0.129 µM at GSK3β (h). Also, the IC50 was 0.457 µM at CDK1/CyclinB (h), 0.282 µM in the assay on U87-MG and 0.372 µM in the assay with HCT-116.

For the compound `CN1CCNC(=O)C2CCN(CC2)Cc2cc(cc(N3CCOCC3)c2)Nc2nccc(n2)-c2ccc(cc2)C1` [Compound 68], the IC50 on PLK4 (h) is 1.55 µM; in the assay with H1299, more than 10 µM; on AuroraB (h) it was more than 10 µM; with A2780 it was more than 10 µM; on PLK3 (h) it was more than 10 µM; at GSK3β (h), 5.89 µM. Also, the results for the IC50 on CDK1/CyclinB (h), in the assay on U87-MG and in the assay on HCT-116 were more than 10 µM, 7.59 µM and 8.13 µM, respectively.

Turning to `CN1CCCNC(=O)[C@@H]2CCCN2Cc2cccc(c2)Nc2nccc(n2)-c2ccc(cc2)C1` [Compound 173], the IC50 at PLK4 (h) was 6.17 µM; in the assay on H1299 it was more than 10 µM; at AuroraB (h), more than 10 µM; in the assay with A2780, more than 10 µM; at PLK3 (h) it was more than 10 µM; on GSK3β (h), more than 10 µM. Also, the IC50 at CDK1/CyclinB (h), in the assay with U87-MG and in the assay on HCT-116 was more than 10 µM in each case.

Consider `COc1ccc2cc1CN(C)CCCNC(=O)C1CCN(CC1)Cc1cccc(c1)Nc1nccc-2n1` [Compound 81], for which the IC50 is 5.5 µM at PLK4 (h); more than 10 µM with H1299; more than 10 µM at AuroraB (h); more than 10 µM with A2780; more than 10 µM at PLK3 (h); more than 10 µM on GSK3β (h). Besides, the IC50 on CDK1/CyclinB (h), in the assay on U87-MG and in the assay with HCT-116 was more than 10 µM each time.

On to `O=C1NCCCOc2cccc(c2)-c2ccnc(n2)Nc2ccc(N3CCOCC3)c(c2)CN[C@H]1CO` [Compound 89], for which the IC50 is 0.525 µM at PLK4 (h); more than 10 µM with H1299; more than 10 µM at AuroraB (h); 6.76 µM with A2780; more than 10 µM on PLK3 (h); 0.589 µM at GSK3β (h). For the same compound, the IC50 on CDK1/CyclinB (h) was more than 10 µM; in the assay with U87-MG, more than 10 µM; with HCT-116, 4.37 µM.

For `C[C@H]1NCc2cc(ccc2N2CCOCC2)Nc2nccc(n2)-c2ccc(cc2)OCCCNC1=O` [Compound 86], the IC50 on PLK4 (h) is 0.209 µM; in the assay on H1299 it was more than 10 µM; on AuroraB (h) it was 10.5 µM; in the assay on A2780, more than 10 µM; at PLK3 (h), more than 10 µM; on GSK3β (h), 0.0692 µM. In addition, the IC50 on CDK1/CyclinB (h), in the assay on U87-MG and in the assay on HCT-116 was more than 10 µM each time.

Turning to `CN1CCCNC(=O)C2CCN(CC2)Cc2cc(cc(N3CCOCC3)c2)Nc2nccc(n2)-c2ccc(cc2)C1` [Compound 72], the IC50 is 2.34 µM on PLK4 (h); more than 10 µM with H1299; more than 10 µM on AuroraB (h); more than 10 µM in the assay with A2780; more than 10 µM on PLK3 (h); more than 10 µM on GSK3β (h). The IC50 at CDK1/CyclinB (h) is more than 10 µM; with U87-MG, 6.17 µM; in the assay on HCT-116, 3.39 µM.

For `COc1ccc2cc1CNCCNC(=O)[C@@H]1C[C@@H](O)CN1Cc1cc(ccc1N1CCOCC1)Nc1nccc-2n1` [Compound 177], the IC50 on PLK4 (h), with H1299, on AuroraB (h), in the assay with A2780, on PLK3 (h) and at GSK3β (h) was more than 10 µM each time. Besides, the IC50 at CDK1/CyclinB (h), with U87-MG and in the assay with HCT-116 was more than 10 µM throughout.

Consider `O=C1CN2CCN(CC2)Cc2cc(ccc2N2CCOCC2)Nc2nccc(n2)-c2cccc(c2)OCCCN1` [Compound 103], for which the IC50 at PLK4 (h) was 1.1 µM; with H1299 it was more than 10 µM; at AuroraB (h), more than 10 µM; in the assay with A2780, more than 10 µM; at PLK3 (h) it was more than 10 µM; on GSK3β (h), 1.55 µM. In addition, the IC50 at CDK1/CyclinB (h), with U87-MG and with HCT-116 was more than 10 µM in each case.

Take `O=C(NC1CCCCC1)c1ccc2cc1CN1CCC[C@H]1C(=O)NCc1cccc(c1)-c1ccnc(n1)N2` [Compound 41]: the IC50 on PLK4 (h) is 0.347 µM; in the assay on H1299, more than 10 µM; on AuroraB (h), more than 10 µM; in the assay on A2780, more than 10 µM; at PLK3 (h), more than 10 µM; on GSK3β (h) it was 0.263 µM. Besides, the results for the IC50 at CDK1/CyclinB (h), in the assay on U87-MG and with HCT-116 were more than 10 µM, 2.29 µM and 3.89 µM, respectively.

With `O=C1NCc2cccc(c2)-c2ccnc(n2)Nc2cc(CNC3CCOCC3)cc(c2)CN2CCC[C@@H]12` [Compound 29], the IC50 at PLK4 (h) was 0.162 µM; with H1299, 3.8 µM; at AuroraB (h), more than 10 µM; in the assay on A2780, 0.708 µM; at PLK3 (h) it was more than 10 µM; at GSK3β (h) it was 0.112 µM. The values for the IC50 on CDK1/CyclinB (h), in the assay with U87-MG and in the assay on HCT-116 were 0.676 µM, 0.457 µM and 0.646 µM, respectively.

`COc1ccc2cc1CN(C)CCNC(=O)[C@@H]1CCCN1Cc1cccc(c1)Nc1nccc-2n1` [Compound 175]: the IC50 on PLK4 (h) is 8.51 µM; in the assay on H1299 it was more than 10 µM; at AuroraB (h) it was more than 10 µM; in the assay with A2780 it was more than 10 µM; on PLK3 (h) it was more than 10 µM; at GSK3β (h) it was more than 10 µM. Moreover, the IC50 on CDK1/CyclinB (h), in the assay on U87-MG and in the assay with HCT-116 was more than 10 µM each time.

The values above are taken from patent publication US8609836B2, “4-aryl-2-anilino-pyrimidines” (Janssen Pharmaceutica NV, priority 2008, dated 2013).
